Patent US20260250320A1, “LIPIDATED PEPTIDE INHIBITORS OF INTERLEUKIN-23 RECEPTOR” (Janssen Pharmaceutica NV, priority 2023, published 2026)
*1 amine or outer side, *2 acyl side, *3 side chain or, on linkers, in order; H or OH if unused. Where a SMILES comes first, the peptide text is derived from it. Bridges are numbered along the chain shown (N, C = ends). Side-chain parts run from the residue outwards. [ ]: non-standard residue; d: D form. The star is where a group is joined. X9 = O=C(O)CCCCCCCCCCCCCCCCC(=O)N[C@@H](CCC(=O)NCCOCCOCCOCCOCCOCCOCCOCCOCCOCCOCCOCCCCCC(=O)*)C(=O)O; Me3N+(CH2)2O(CH2)2O(CH2)2CO = C[N+](C)(C)CCOCCOCCC(=O)*; PEG12 = NCCOCCOCCOCCOCCOCCOCCOCCOCCOCCOCCOCCOCCC(=O)O; Trp(7-Me) = Cc1cccc2c(C[C@H](N)C(=O)O)c[nH]c12; C20 diacid = O=C(O)CCCCCCCCCCCCCCCCCCC(=O)*; C18 diacid = O=C(O)CCCCCCCCCCCCCCCCC(=O)*; X40 = C=C(/C=N\C)C[C@H](N[*:1])C(=O)[*:2]; γGlu = O=C(O)[C@H](CCC(=O)[*:2])N[*:1]; 2Nal = N[C@@H](Cc1ccc2ccccc2c1)C(=O)O; AEF = NCCOc1ccc(C[C@H](N)C(=O)O)cc1; X2 = C[N+](C)(C)C[C@@H](CC(=O)O)N*; 3Pal = N[C@@H](Cc1cccnc1)C(=O)O; Lys(Me) = CNCCCC[C@H](N)C(=O)O; Pen = CC(C)(S)[C@H](N)C(=O)O; Suc = O=C(CCC(=O)[*:2])[*:1]; Thp = NC1(C(=O)O)CCOCC1; X1 = C[N+](C)(C)CCCCC*; AEEA = NCCOCCOCC(=O)O; Sar = CNCC(=O)O

Key:
IL-23R = molecular target: T1, IL-23R (Homo sapiens, UniProt Q5VWK5); test: IL23R Reporter Assay; type: cell-based; settings: HEK293 cells containing IL-23R, IL-12Rβ1 and STAT-inducible firefly luciferase reporter; 10 ng/mL IL-23 (EC90); 5 h
T1 construct: HEK293 cells containing IL-23R, IL-12Rβ1 and a firefly luciferase reporter gene driven by a STAT-inducible promoter (Promega); host or cells: HEK293
T1 sequence (Q5VWK5 24-629): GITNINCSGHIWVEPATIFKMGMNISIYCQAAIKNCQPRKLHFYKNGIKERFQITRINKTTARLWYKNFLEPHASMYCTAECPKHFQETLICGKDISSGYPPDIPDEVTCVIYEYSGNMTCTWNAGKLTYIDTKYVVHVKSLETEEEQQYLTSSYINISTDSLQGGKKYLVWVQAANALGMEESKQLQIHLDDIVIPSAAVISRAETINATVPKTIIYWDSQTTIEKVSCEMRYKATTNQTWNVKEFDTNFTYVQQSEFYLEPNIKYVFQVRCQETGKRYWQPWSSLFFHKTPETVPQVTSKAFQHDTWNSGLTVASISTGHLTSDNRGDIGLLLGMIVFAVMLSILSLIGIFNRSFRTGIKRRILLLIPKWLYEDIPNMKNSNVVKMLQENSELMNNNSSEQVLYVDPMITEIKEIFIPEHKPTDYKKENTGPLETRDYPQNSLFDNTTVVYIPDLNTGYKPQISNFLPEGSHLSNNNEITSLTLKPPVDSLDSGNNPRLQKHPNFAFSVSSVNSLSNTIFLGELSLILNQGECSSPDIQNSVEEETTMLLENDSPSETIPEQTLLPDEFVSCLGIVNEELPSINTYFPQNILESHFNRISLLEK
Method: Compounds were serially diluted in 100% (v/v) DMSO) and plated using an Echo acoustic dispenser (Labcyte) into 1536-well non-treated black assay plates (Corning #9146). 3 μL of HEK293 cells containing IL-23R, IL-12Rβ1 and a firefly luciferase reporter gene driven by a STAT-inducible promoter (Promega) were added to the plates (4000 cells/well), followed by 3 μL of 10 ng/mL IL-23 (equivalent to EC90 concentration). After 5 h at 37° C., 5% CO2, 95% relative humidity, cells were placed at 20° C. and treated with BioGlo reagent (Promega) according to the Manufacturer's instructions. Luminescence was measured on a Pherastar FSX (BMG LabTech). Data were normalized to IL-23 treatment (0% inhibition) and 30 μM of control inhibitor (100% inhibition), and IC50 values were determined using a 4-parameter Hill equation.

[1] = tested on: IL-23-stimulated phosphorylated STAT3 in peripheral blood mononuclear cells (PBMCs); test: PBMC pSTAT3 Assay; type: cell-based; settings: PBMCs from healthy donors; 30 min preincubation with peptide; IL-23 5 ng/mL for 30 min; phospho-STAT3 by MSD
Method: Cryopreserved peripheral blood mononuclear cells (PBMCs) from healthy donors were thawed and washed twice in ImmunoCult-XF T cell expansion medium (XF-TCEM) supplemented with CTL anti-aggregate wash. The cells were counted, resuspended at 2-6×10^5 cells per mL XF-TCEM supplemented with penicillin/streptomycin and 100 ng/mL […] (BioLegend, 579404), and cultured in tissue culture flasks coated with anti-CD3 (eBioscience, 16-0037-85 or BD Pharmingen, 555329) at 37° C. in 5% CO2. On day 4 of culture, PBMCs were collected, washed twice in RPMI-1640 supplemented with 0.1% BSA (RPMI-BSA), and incubated in RPMI-BSA in upright tissue culture flasks for ~4 hours at 37° C. in 5% CO2. Following this 'starvation,' a total of 6×10^4 cells in 30 μL RPMI-BSA was transferred into each well of a 384-well plate pre-spotted with peptide or DMSO. The cells were incubated for 30 minutes prior to the addition of […] at a final concentration of 5 ng/mL. The cells were stimulated with cytokine for 30 minutes at 37° C. in 5% CO2, transferred onto ice for 10 minutes, and lysed. Cell lysates were stored at -80° C. until phosphorylated STAT3 was measured using the phospho-STAT panel kit (Meso Scale Discovery, […]). Results are provided below. • A: IC50<0.5 nM; • B: 0.5 nM≤IC50<5 nM; • C: 5 nM≤IC50; • ND: Not determined

Structure (SMILES) | IC50 (IL-23R) [nM] | IC50 [1] [nM]
CC(=O)N(C)CCCC[C@@H]1NC(=O)[C@H](Cc2c[nH]c3c(C)cccc23)NC(=O)[C@H]([C@@H](C)O)NC(=O)[C@H](CCCCNC(=O)CCCCCOCCOCCOCCOCCOCCOCCOCCOCCOCCOCCOCCNC(=O)CC[C@H](NC(=O)CCCCCCCCCCCCCCCCC(=O)O)C(=O)O)NC(=O)[C@@H](NC(=O)CCOCCOCC[N+](C)(C)C)C(C)(C)SSC(C)(C)[C@@H](C(=O)N[C@@H](Cc2ccc(OCCCCC[N+](C)(C)C)cc2)C(=O)N[C@@H](Cc2ccc3ccccc3c2)C(=O)NC2(C(=O)N[C@@H](CCCCN(C)C(C)=O)C(=O)N[C@@H](CC(N)=O)C(=O)N[C@@H](Cc3cccnc3)C(=O)N(C)CC(=O)N(C)C)CCOCC2)NC1=O [compound 116, HOC18gEPEG12CO-Pen(3)-N-T-K(Ac)-Pen(3)-AEF-2Nal-THP-E-N-3Pya-Sar-CONH2] ({Me3N+(CH2)2O(CH2)2O(CH2)2CO}-[Pen]K(X9)T[Trp(7-Me)][Lys(Me)](Ac)[Pen]Y(X1)[2Nal][Thp][Lys(Me)](Ac)N[3Pal][Sar]-NMe2; disulfide 1-6) | < 50 | < 0.5
C=C(/C=N\C)C[C@H](NC(=O)[C@H](CC(N)=O)NC(=O)[C@H](CCC(=O)O)NC(=O)C1(NC(=O)[C@H](Cc2ccc3ccccc3c2)NC(=O)[C@H](Cc2ccc(OCCN)cc2)NC(=O)[C@H]2NC(=O)[C@H](CCCCNC(C)=O)NC(=O)[C@H](Cc3c[nH]c4c(C)cccc34)NC(=O)[C@H]([C@@H](C)O)NC(=O)[C@H](CC(N)=O)NC(=O)[C@@H](NC(=O)[C@@H](CCCCNC(=O)CCOCCOCCOCCOCCOCCOCCOCCOCCOCCOCCOCCOCCNC(=O)CC[C@H](NC(=O)CCCCCCCCCCCCCCCCCCC(=O)O)C(=O)O)NC(C)=O)C(C)(C)SSC2(C)C)CCOCC1)C(=O)N(C)CC(N)=O [compound 26, MeCO-k(PEG12gEC20OH)-Pen(3)-N-T-7MeW-K(Ac)-Pen(3)-AEF-2Nal-THP-E-N-3Pya-Sar-CONH2] (Ac-[dK]([PEG12-γGlu-C20 diacid])[Pen]NT[Trp(7-Me)]K(Ac)[Pen][AEF][2Nal][Thp]EN[X40][Sar]-NH2; disulfide 2-7) | < 50 | < 0.5
Cc1cccc2c(C[C@@H]3NC(=O)[C@H]([C@@H](C)O)NC(=O)[C@H](CC(N)=O)NC(=O)[C@@H](NC(=O)[C@@H](CCCNC(=N)N)NC(=O)COCCOCCNC(=O)COCCOCCNC(=O)CC[C@H](NC(=O)CCCCCCCCCCCCCCCCC(=O)O)C(=O)O)C(C)(C)SSC(C)(C)[C@@H](C(=O)N[C@@H](Cc4ccc(OCCN)cc4)C(=O)N[C@@H](Cc4ccc5ccccc5c4)C(=O)NC4(C(=O)N[C@@H](CCC(=O)O)C(=O)N[C@@H](CC(N)=O)C(=O)N[C@@H](Cc5cccnc5)C(=O)N(C)CC(N)=O)CCOCC4)NC(=O)[C@H](CCCCNC(=O)CCC(=O)N[C@H](CC(=O)O)C[N+](C)(C)C)NC3=O)c[nH]c12 [compound 46, HOC18gEPEG2PEG2CO-r-Pen(3)-N-T-7MeW-K(d)-Pen(3)-AEF-2Nal-THP-E-N-3Pya-Sar-CONH2] ({C18 diacid-γGlu-AEEA-AEEA}-[dR][Pen]NT[Trp(7-Me)]K([Suc-X2])[Pen][AEF][2Nal][Thp]EN[3Pal][Sar]-NH2; disulfide 2-7) | < 50 | < 0.5
